Measurements from article PMC7429951 (Journal of Medicinal Chemistry, 2020).
Where two headings read alike, the source gives them in different places.

Legend:
LasB [1] = target: T1, LasB (Pseudomonas aeruginosa, UniProt Q02RJ6); conditions: read-out: IC50 (LasB); literature inhibitor; cited from earlier work
MMP-1 = target: T2, MMP-1 (Homo sapiens, UniProt P03956); assay: MMP-1 off-target inhibition; assay type: biochemical; conditions: read-out: MMP-1 % inhibition @ 100 μM; 100 μM compound
T2 sequence (P03956 100-469): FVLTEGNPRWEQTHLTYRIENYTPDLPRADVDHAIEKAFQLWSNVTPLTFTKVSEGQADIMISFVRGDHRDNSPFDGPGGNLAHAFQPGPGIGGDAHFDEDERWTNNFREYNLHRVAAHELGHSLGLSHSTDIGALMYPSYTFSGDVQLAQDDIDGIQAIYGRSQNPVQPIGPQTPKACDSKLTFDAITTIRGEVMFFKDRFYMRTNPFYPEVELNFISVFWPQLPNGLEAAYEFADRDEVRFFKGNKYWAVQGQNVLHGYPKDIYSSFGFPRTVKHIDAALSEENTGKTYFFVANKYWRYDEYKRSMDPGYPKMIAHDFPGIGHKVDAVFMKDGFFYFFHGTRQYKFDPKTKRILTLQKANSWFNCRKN
Description: (§1) Previously, we described N-aryl mercaptoacetamides with high selectivity for the bacterial over a broad range of human MMPs.[29],[30] MMPs are calcium-dependent zinc metalloproteases that play a pivotal role in numerous biochemical processes in humans.[39],[40] Based on the depth of their S1′ binding pocket, MMPs can be divided into three classes: deep (e.g., MMP-3 and -14), intermediate (e.g., MMP-2 and -8), and shallow (e.g., MMP-1 and -7). With the aim to explore the interactions of our inhibitors with all three pocket types, which could help us to assess potential effects on other not-tested representatives, we chose a panel of six MMPs, comprising two members of each class. In addition, HDAC-3, HDAC-8, and TACE (ADAM-17)—enzymes involved in gene expression and the processing of TNF-α,[41],[42] respectively—were selected as important additional human off-targets.

in vitro [2] = conditions: human, HepG2 cells (hepatocellular carcinoma)
LasB [3] = target: T1, LasB
in vitro [4] = conditions: human, A549 cells (lung carcinoma)
HDAC-8 = target: T3, HDAC-8 (Homo sapiens, UniProt Q9BY41); assay: HDAC-8 inhibitor screening kit; assay type: biochemical
T3 construct: purchased Sigma-Aldrich (Saint Louis, MO)
T3 sequence (Q9BY41 1-377): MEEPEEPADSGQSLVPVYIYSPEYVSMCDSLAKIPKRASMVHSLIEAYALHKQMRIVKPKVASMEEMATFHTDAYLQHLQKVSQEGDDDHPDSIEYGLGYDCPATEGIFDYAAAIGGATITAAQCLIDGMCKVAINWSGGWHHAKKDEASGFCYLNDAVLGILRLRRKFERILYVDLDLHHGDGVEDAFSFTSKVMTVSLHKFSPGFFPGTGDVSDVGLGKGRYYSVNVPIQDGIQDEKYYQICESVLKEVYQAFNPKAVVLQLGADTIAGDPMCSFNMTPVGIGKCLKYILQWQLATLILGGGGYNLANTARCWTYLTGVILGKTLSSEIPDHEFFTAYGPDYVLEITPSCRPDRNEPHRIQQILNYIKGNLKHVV
Description: as §1

MMP-3 = MMP-3 (Homo sapiens, UniProt P08254); assay: MMP-3 off-target inhibition; assay type: biochemical; conditions: read-out: MMP-3 % inhibition @ 100 μM; 100 μM compound
Description: as §1

in vitro [5] = conditions: human, HEK293 cells (embryonal kidney)
TACE (ADAM-17) = target: T4, TACE (ADAM-17) (Homo sapiens, UniProt P78536); assay: TACE inhibitor screening kit; assay type: biochemical
T4 construct: purchased Sigma-Aldrich (Saint Louis, MO)
Description: as §1

MMP-2 = target: T5, MMP-2 (Homo sapiens, UniProt P08253); assay: MMP-2 off-target inhibition; assay type: biochemical
T5 sequence (P08253 110-660): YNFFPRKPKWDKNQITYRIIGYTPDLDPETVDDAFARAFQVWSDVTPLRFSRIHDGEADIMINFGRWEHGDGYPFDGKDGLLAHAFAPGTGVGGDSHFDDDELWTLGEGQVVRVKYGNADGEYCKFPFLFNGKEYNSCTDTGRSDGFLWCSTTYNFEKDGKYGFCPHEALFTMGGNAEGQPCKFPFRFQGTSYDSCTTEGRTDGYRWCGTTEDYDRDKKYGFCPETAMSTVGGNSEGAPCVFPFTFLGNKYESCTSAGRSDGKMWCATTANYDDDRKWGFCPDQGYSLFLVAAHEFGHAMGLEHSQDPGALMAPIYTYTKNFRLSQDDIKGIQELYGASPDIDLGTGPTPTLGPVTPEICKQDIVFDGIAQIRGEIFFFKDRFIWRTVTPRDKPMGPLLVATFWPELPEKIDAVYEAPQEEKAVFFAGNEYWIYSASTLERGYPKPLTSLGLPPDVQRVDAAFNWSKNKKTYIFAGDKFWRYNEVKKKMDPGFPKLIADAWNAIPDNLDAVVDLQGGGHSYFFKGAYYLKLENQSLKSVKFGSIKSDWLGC
Description: as §1

LasB [6] = target: T1, LasB; assay: biochemical; conditions: LasB IC50, FRET-based assay
[7] = target: peptidase domain of ColH (ColH-PD) (Hathewaya histolytica, UniProt Q46085); assay: biochemical; parameters: species or system Clostridium histolyticum; conditions: read-out: ColH-PD % inhibition @ 1 μM
HDAC-3 = target: T6, HDAC-3 (Homo sapiens, UniProt O15379); assay: HDAC-3 inhibitor screening kit; assay type: biochemical
T6 construct: purchased Sigma-Aldrich (Saint Louis, MO)
Description: as §1

MMP-14 = MMP-14 (Homo sapiens, UniProt P50281); assay: MMP-14 off-target inhibition; assay type: biochemical
Description: as §1

MMP-7 = target: T7, MMP-7 (Homo sapiens, UniProt P09237); assay: MMP-7 off-target inhibition; assay type: biochemical; conditions: read-out: MMP-7 % inhibition @ 100 μM; 100 μM compound
T7 sequence (P09237 95-267): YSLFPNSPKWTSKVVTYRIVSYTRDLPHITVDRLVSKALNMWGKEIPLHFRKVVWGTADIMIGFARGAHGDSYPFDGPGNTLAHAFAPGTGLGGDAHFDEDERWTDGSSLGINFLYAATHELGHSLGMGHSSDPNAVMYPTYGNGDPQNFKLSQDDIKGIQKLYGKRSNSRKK
Description: as §1

[8] = test system: P. aeruginosa strain PA14; assay: Bacterial growth inhibition assay (MIC) P. aeruginosa; assay type: cell-based, Pseudomonas aeruginosa
MMP-8 = MMP-8 (Homo sapiens, UniProt P22894); assay: MMP-8 off-target inhibition; assay type: biochemical
Description: as §1

T1 sequence (Q02RJ6 198-498): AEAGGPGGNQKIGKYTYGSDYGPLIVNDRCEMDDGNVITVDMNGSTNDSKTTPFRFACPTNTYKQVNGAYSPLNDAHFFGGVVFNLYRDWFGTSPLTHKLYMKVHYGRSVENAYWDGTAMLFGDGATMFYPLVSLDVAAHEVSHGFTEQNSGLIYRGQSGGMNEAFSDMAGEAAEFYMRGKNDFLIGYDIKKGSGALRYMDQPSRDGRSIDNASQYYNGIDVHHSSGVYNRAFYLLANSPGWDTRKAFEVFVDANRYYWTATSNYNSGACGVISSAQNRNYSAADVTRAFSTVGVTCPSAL
Sequence of MMP-8 (P22894 101-467): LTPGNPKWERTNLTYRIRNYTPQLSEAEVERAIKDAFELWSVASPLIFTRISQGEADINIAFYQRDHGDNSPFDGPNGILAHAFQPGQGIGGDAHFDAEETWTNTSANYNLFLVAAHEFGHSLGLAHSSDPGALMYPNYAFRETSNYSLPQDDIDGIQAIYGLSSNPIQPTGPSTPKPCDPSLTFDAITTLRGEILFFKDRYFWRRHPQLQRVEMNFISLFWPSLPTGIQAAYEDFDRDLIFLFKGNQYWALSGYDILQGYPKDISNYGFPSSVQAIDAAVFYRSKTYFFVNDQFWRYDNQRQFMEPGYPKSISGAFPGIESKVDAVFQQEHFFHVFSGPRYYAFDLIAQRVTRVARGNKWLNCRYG
T4 sequence (P78536 215-824): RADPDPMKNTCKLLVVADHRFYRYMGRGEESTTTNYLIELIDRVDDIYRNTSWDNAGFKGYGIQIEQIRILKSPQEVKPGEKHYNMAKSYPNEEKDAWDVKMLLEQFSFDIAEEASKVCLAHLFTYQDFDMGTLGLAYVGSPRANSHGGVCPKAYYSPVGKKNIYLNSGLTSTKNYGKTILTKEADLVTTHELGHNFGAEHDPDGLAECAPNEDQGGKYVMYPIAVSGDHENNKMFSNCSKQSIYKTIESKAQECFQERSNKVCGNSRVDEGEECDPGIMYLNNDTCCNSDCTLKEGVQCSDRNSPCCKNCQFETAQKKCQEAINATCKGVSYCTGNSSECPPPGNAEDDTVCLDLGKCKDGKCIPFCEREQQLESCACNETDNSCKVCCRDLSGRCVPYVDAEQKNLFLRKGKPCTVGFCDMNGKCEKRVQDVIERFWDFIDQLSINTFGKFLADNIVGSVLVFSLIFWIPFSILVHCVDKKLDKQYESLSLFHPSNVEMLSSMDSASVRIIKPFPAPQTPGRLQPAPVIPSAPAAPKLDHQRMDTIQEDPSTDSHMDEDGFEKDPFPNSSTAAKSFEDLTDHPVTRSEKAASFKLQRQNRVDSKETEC
Sequence of MMP-3 (P08254 100-477): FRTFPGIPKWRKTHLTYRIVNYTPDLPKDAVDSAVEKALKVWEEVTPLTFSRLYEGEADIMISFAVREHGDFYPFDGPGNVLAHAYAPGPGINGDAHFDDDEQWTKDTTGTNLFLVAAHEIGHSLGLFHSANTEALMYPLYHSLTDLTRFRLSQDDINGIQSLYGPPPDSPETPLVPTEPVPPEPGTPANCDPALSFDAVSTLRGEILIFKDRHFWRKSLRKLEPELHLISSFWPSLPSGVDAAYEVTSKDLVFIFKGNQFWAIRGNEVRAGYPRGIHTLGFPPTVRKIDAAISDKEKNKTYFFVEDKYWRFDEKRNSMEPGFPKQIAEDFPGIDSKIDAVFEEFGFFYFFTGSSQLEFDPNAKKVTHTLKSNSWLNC
Sequence of peptidase domain of ColH (ColH-PD) (Q46085 331-721 limits assumed): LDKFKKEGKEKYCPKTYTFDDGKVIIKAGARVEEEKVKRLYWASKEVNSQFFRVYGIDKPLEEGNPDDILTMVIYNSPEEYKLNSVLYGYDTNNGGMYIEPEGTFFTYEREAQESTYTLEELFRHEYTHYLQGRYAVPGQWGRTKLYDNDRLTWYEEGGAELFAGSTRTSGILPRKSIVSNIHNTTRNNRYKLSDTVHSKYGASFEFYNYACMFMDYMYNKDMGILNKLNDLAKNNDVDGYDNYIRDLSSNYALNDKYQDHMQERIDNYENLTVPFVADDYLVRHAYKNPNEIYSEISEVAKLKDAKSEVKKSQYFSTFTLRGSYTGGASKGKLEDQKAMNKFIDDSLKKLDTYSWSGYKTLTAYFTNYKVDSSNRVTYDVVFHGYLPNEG
T6 sequence (O15379 whole entry): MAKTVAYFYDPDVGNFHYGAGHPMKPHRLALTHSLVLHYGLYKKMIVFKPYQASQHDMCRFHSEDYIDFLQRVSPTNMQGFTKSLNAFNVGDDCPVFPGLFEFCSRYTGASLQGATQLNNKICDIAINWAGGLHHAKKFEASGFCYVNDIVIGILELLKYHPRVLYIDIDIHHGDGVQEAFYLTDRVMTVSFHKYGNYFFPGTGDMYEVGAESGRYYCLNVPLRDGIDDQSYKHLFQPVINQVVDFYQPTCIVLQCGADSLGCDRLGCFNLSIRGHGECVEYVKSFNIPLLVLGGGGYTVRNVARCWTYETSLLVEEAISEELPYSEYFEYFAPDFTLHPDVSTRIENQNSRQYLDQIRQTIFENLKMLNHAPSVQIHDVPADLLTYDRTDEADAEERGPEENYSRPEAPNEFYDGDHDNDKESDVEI
T6 sequence (Q9Y618 395-489 partner limits assumed): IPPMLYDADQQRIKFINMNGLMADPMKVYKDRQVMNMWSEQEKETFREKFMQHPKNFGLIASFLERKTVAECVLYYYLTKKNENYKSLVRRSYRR

For `Cc1c(O)c(=S)ccn1Cc1ccc(-c2ccccc2)cc1` [Compound 1], the IC50 (LasB [1]) is given as 2.73 ± 0.03 µM.

In the case of `O=C1CC(S)C(=O)N1c1ccc(Cl)c(Cl)c1` (stereo not drawn) [Compound 13, 1-(3,4-Dichlorophenyl)-3-mercaptopyrrolidine-2,5-dione], the inhibition at 100 µM (MMP-1) is reported as less than 10%, the IC50 (in vitro [2]) is reported as greater than 100 µM and the “improved activity against LasB compared to previous hit 5” value (LasB [3]) is reported as “two-fold”. It also gave an IC50 (in vitro [4]) greater than 100 µM, an IC50 (HDAC-8) greater than 100 µM and an inhibition at 100 µM (MMP-3) of less than 10%. The IC50 (in vitro [5]) was greater than 100 µM, the IC50 (TACE (ADAM-17)) was 5.2 ± 0.6 µM and the inhibition at 50 µM (MMP-2; 50 µM compound, read-out: MMP-2 % inh @50µM) was less than 10%. For the same compound, the inhibition at 100 µM (MMP-2; read-out: MMP-2 % inhibition @ 100 μM, 100 μM compound) was 39 ± 32%, the IC50 (LasB [6]) was 3.4 ± 0.2 µM and the inhibition at 1 µM [7] was 12 ± 2%. For the same compound, the IC50 (HDAC-3) was greater than 100 µM, the inhibition at 50 µM (MMP-14; 50 µM compound, read-out: MMP-14 % inh @50µM) was less than 10% and the inhibition at 100 µM (MMP-14; read-out: MMP-14 % inhibition @ 100 μM, 100 μM compound) was less than 10%. The inhibition at 100 µM (MMP-7) was less than 10%, the MIC [8] was greater than 100 µM and the MIC ([8]; Pseudomonas aeruginosa) was greater than 100 µM. The inhibition at 50 µM (MMP-8; 50 µM compound, read-out: MMP-8 % inh @50µM) was less than 10% and the inhibition at 100 µM (MMP-8; read-out: MMP-8 % inhibition @ 100 μM, 100 μM compound) was 84 ± 8%.
